Reference: ChEMBL document CHEMBL1667833, “Potent radiosensitizing agents: 5-methylselenyl- and 5-phenylselenyl-methyl-2'-deoxyuridine” (Bioorg Med Chem Lett, 2011)

What was measured:
NCI-H460 [1] = assay: Cytotoxicity against human H460 cells assessed as cell viability after 72 hrs by calorimetric assay; type: functional, cell-based; details: NCI-H460, 72 h
NCI-H460 [2] = assay: Potentiation of gamma-irradiation-induced cytotoxicity against human H460 cells assessed as dose enhancement ratio at 50 uM administered 24 hrs before 2-8 Gy irradiation measured after 12 days; type: functional
NCI-H460 [3] = assay: Potentiation of gamma-irradiation-induced cytotoxicity against human H460 cells assessed as dose enhancement ratio at 300 uM administered 24 hrs before 2-8 Gy irradiation measured after 12 days; type: functional

SMILES | IC50 (NCI-H460 [1]) [µM] | Ratio (NCI-H460 [2]) | Ratio (NCI-H460 [3])
C[Se]Cc1cn([C@H]2C[C@H](O)[C@@H](CO)O2)c(=O)[nH]c1=O | 100 | 1.2 | –
O=c1[nH]c(=O)n([C@H]2C[C@H](O)[C@@H](CO)O2)cc1C[Se]c1ccccc1 | 500 | – | 1.12
